What is called IC50 is the midpoint of a concentration-inhibition curve. A high value points to lower potency. The term inhibition denotes the share of the control response that was lost under treatment. A low value points to a weak effect.

Bounds are passed on as bounds.

The values that follow come from ChEMBL document CHEMBL1944591, “Synthesis and biological evaluation of quinazoline and quinoline bearing 2,2,6,6-tetramethylpiperidine-N-oxyl as potential epidermal growth factor receptor(EGFR) tyrosine kinase inhibitors and EPR bio-probe agents” (Eur J Med Chem, 2012).

For data set [1], the target named is T1, Epidermal growth factor receptor (Homo sapiens, UniProt P00533). The data set can be described thus: Inhibition of EGFR after 50 mins by HTRF assay.
Data set [2] concerns A-431. Briefly: Cytotoxicity against human A431 cells after 72 hrs by MTT assay. The data set is classed as functional, cell-based.
In data set [3] the target is T1, Epidermal growth factor receptor. Conditions: at 10 µM; call rule not given here.
In data set [4] the test system is A-431. The data set can be described thus: Cellular uptake in human A431 cells after 8 hrs by EPR spectroscopy. The data set is classed as ADME, cell-based. Conditions: a-431, 8 h.
Data set [5] concerns A-431. The data set can be described thus: Cytotoxicity against human A431 cells at 300 uM after 72 hrs by MTT assay. It is filed as functional. The following applies: A-431, 72 h. Background: Tetrazolium dyes change colour on reduction, which living cells bring about.

T1 sequence (P00533 whole entry): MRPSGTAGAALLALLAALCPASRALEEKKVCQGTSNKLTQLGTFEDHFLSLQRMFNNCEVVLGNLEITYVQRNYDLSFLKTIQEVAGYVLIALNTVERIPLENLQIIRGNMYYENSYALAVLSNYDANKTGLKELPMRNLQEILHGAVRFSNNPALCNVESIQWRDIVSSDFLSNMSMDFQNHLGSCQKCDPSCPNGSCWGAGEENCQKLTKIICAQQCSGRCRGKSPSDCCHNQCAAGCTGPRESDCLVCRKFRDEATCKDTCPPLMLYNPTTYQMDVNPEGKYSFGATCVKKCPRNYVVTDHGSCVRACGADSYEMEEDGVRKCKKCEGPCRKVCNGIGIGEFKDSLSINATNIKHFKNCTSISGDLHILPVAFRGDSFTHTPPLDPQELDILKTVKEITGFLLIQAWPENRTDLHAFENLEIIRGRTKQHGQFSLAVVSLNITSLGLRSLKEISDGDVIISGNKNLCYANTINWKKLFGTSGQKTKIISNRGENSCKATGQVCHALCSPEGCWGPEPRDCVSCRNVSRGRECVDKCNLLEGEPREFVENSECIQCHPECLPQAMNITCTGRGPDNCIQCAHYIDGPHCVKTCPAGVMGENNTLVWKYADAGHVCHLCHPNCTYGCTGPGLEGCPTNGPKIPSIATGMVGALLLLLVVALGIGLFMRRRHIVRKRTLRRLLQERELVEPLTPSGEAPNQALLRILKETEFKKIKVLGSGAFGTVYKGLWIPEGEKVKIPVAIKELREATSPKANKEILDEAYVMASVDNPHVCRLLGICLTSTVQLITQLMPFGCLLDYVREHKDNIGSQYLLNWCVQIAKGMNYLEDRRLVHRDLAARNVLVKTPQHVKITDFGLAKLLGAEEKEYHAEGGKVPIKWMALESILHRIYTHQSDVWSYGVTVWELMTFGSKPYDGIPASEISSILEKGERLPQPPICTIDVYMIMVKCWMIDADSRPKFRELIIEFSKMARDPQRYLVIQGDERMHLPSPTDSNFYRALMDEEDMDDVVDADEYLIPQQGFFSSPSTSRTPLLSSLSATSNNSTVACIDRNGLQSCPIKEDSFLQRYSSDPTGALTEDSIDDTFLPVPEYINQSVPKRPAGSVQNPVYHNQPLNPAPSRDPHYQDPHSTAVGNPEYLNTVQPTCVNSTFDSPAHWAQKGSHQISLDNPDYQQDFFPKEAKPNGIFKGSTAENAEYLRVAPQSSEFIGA

For the molecule `COc1cc2ncc(C(=O)NC3CC(C)(C)N([O])C(C)(C)C3)c(Nc3cccc(Cl)c3)c2cc1OC`, the IC50 came out at 0.623 µM in data set [1] and 45.5 µM in data set [2] (Homo sapiens, A-431, 72 h). This molecule had an inhibition in data set [3] of 88.3%.

On to `CC1(C)CC(C(=O)Nc2ccc3ncnc(Nc4cccc(Cl)c4)c3c2)CC(C)(C)N1[O]`, for which the concentration for half-maximal inhibition (IC50) in data set [1] turned out to be 0.065 µM; in data set [2] (Homo sapiens, A-431, 72 h), 26.9 µM. In data set [3], this molecule came in with an inhibition of 99.4%.

For the molecule `Nc1ccc2ncnc(Nc3cccc(Br)c3)c2c1`, in data set [2] (Homo sapiens, A-431, 72 h), it took 34.9 µM to reach half-maximal inhibition (IC50).

In turn, `COc1cc2ncc(C(=O)O)c(Nc3cccc(Cl)c3)c2cc1OC` came in with an IC50 in data set [2] (Homo sapiens, A-431, 72 h) of 97.9 µM.

On to `Nc1ccc2ncnc(Nc3cccc(Cl)c3)c2c1`, for which, in data set [2] (a-431), the IC50 turned out to be 31.9 µM. The same molecule registered an inhibition in data set [3] of 98.9%.

For the molecule `CC1(C)CC(C(=O)Nc2ccc3ncnc(Nc4cccc(Br)c4)c3c2)CC(C)(C)N1[O]`, the IC50 is 0.031 µM in data set [1] and 27.4 µM in data set [2] (Homo sapiens, A-431, 72 h). The inhibition in data set [3] came out at 99.4%.

As to `COc1cc2ncc(C(=O)NC3CC(C)(C)N([O])C(C)(C)C3)c(Nc3ccc(F)c(Cl)c3)c2cc1OC`, the IC50 in data set [1] amounted to 0.422 µM; in data set [2] (Homo sapiens, A-431, 72 h) it was 38.1 µM. The Drug uptake entry in data set [4] was “Active”. For the same molecule, the inhibition in data set [3] was determined as 92.8%.

Consider `COc1cc2ncc(C(=O)O)c(Nc3cccc(Br)c3)c2cc1OC`, for which the IC50 in data set [1] was determined as 8.72 µM; in data set [2] (Homo sapiens, A-431, 72 h), 94 µM. Also, the inhibition in data set [3] was found to be 60.1%.

In data set [1], `Nc1ccc2ncnc(Nc3ccc(F)c(Cl)c3)c2c1` showed an IC50 of 0.029 µM. The molecule also came in with an inhibition in data set [3] of 99.5%.

On to `COc1cc2ncc(C(=O)NC3CC(C)(C)N([O])C(C)(C)C3)c(Nc3cccc(Br)c3)c2cc1OC`, for which the IC50 in data set [1] was 0.342 µM; in data set [2] (Homo sapiens, A-431, 72 h) it was 43.2 µM. Moreover, the inhibition in data set [3] came out at 90.3%.

As for `CC1(C)CC(C(=O)Nc2ccc3ncnc(Nc4ccc(F)c(Cl)c4)c3c2)CC(C)(C)N1[O]`, the IC50 came out at 0.015 µM in data set [1] and 24.7 µM in data set [2] (Homo sapiens, A-431, 72 h). For the same molecule, in data set [4], the Drug uptake entry is “Active”. Besides, in data set [3], the inhibition is 99.5%.

As to `COc1cc2ncc(C(=O)O)c(Nc3ccc(F)c(Cl)c3)c2cc1OC`, the IC50 in data set [1] is 9.28 µM; in data set [2] (Homo sapiens, A-431, 72 h) it was 88.8 µM. The inhibition in data set [3] is 66.5%.

In data set [2] (Homo sapiens, A-431, 72 h), `CC1(C)CCCC(C)(C)N1[O]` showed an IC50 of over 300 µM. For the same molecule, in data set [5], the inhibition at 300 µM is under 50%.
